Data published in patent US20260193250A1, “TOLL-LIKE RECEPTOR 7 AGONISTS AS IMMUNE-STIMULATORS TO ELICIT THE INNATE ANTITUMOR IMMUNITY” (Merck Patent GmbH, priority 2022, published 2026).

Legend:
hTLR8 = target: T1, hTLR8 (Homo sapiens, UniProt Q9NR97); assay: TLR8 reporter assay in HEK-Blue cells (SEAP, Quanti-Blue); format: cell-based; conditions: 24 hours incubation, SEAP absorbance at 620 nm
T1 construct: host or cells: HEK-Blue hTLR8 (HEK293-derived SEAP reporter cells)
T1 sequence (Q9NR97 27-1041): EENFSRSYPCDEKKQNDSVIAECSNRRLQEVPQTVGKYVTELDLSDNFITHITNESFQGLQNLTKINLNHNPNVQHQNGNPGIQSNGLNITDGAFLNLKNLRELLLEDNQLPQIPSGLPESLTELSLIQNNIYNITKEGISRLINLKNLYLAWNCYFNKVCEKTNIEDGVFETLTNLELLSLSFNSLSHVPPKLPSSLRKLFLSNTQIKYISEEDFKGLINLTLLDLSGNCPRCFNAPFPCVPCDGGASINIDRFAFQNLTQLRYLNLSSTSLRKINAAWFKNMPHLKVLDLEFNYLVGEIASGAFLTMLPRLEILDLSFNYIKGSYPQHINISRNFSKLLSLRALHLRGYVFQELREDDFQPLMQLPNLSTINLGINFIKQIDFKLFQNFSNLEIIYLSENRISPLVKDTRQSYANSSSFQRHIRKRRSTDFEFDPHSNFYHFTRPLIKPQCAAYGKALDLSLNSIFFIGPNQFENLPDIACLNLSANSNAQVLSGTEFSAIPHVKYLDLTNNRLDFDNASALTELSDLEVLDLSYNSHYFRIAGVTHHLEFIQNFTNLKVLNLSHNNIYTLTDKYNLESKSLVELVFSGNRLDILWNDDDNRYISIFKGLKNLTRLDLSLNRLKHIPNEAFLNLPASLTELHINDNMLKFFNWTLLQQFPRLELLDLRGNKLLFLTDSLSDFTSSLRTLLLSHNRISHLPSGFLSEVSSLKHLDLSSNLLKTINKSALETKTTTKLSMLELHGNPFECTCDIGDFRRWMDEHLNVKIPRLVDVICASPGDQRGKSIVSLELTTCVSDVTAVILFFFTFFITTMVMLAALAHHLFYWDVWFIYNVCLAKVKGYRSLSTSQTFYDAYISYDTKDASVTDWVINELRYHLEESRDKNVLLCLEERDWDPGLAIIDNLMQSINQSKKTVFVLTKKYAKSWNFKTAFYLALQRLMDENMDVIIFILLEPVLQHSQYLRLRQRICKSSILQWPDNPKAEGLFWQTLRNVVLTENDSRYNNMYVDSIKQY
Protocol: HEK-Blue™ TLR7 and TLR8 cell lines were obtained from InvivoGen (San Diego, CA, USA). HEK-Blue cells were cultured in DMEM medium hi glucose (Gibco-10569010) supplemented with 10% HI-FBS (Aus origin) (Gibco-10100-147), 1% penicillin/streptomycin (Gibco-15140-122-100 ml) as per manufacturer's recommendation. In addition, specific antibiotic mixtures were added to the culture. 100 μg/ml Zeocin (11006-33-0), 10 μg/ml Blasticidin (ant-bl-05), 50 μg/ml Normocin (ANT-NR-1-500 MG) for HEK-Blue™ hTLR7 and 100 μg/ml Zeocin, 30 μg/ml Blasticidin, 50 μg/ml Normocin for HEK-Blue™ hTLR8 cells (all from InvivoGen).
All the compounds were prepared in 100% DMSO (Sigma-D2650). The compounds were serially diluted in 100% DMSO (3 fold) up to 10 point dose response curve starting with 30 μM; final concentration of DMSO in the plate was 0.3%. Resiquimod and TL8-506 (InvivoGen-tlrl-t18506) were used as controls. 0.3% DMSO and 10 μM Resiquimod were used as min and max respectively, and % activation was calculated using following formula:
% Activation: {100−(max absorbance−absorbance)/(max absorbance−min absorbance)}×100.
For stimulation with TLR7/8 agonists, cells were resuspended in complete media and 40 μl of cell suspension (10,000 cells/well) was seeded on day 1 in 384 well assay plate (Thermo Scientific™ Nunc-164688) having pre-dispensed compounds with Echo Liquid handler. The plate was spun at 100 g for 1 min to settle down the cells and incubated at 37° C. with 5% CO2 for 24 hours. For measuring production of SEAP after 24 hrs of incubation, 10 μl of Quanti-Blue™ solution (InvivoGen rep-qbs2) prepared according to manufacturer's instructions was added in dark to the assay plate and incubated at 37° C. with 5% CO2 for 30 min. Post incubation, the absorbance was measured at 620 nm in Tecan spark (Spark control Magellan). EC50 were determined using Graph Pad Prism Statistical software (Version 7.05), with individual data points represent the absorbance values of duplicates.

[1] = test system: Peripheral blood mononuclear cells (PBMC); assay: TNFα secretion from PBMCs; format: cell-based; conditions: human PBMCs, 18 hours incubation, MILLIPLEX bead panel
Protocol: Peripheral blood mononuclear cells (PBMC) were isolated from healthy human volunteers and banked in liquid nitrogen. Vial of frozen PBMC was thawed in 37° C. water bath for no more than 2 minutes. The contents of the tube were aseptically transferred to pre-warmed complete media containing RPMI basal media (Gibco-21875034) supplemented with 10% HI-FBS (Aus origin) (Gibco-10100-147) and 1% penicillin/streptomycin (Gibco-15140-122-100 ml) followed by centrifugation. Cells were resuspended in complete media (3 ml) and counted using haemocytometer.
All selected compounds (Five benchmark and 15 example molecules) were prepared in 100% DMSO (Sigma-D2650) (10 mM stock). The compounds were serially diluted in 100% DMSO (4 fold) up to 8 point DRC in U-bottom 96 well plate (Cellstar-650180). 3 μl of this serially diluted DRC was mixed with 97 μl of completed media (1:33.33) as intermediate dilution (300 μM) 3% DMSO. 11 μl of compounds from intermediate dilution was added to the PBMC plate (1:10) such that final concentration of DMSO in the culture plate is 0.3% and starting concentration of the compounds is 30 μM. Resiquimod (30 μM) and DMSO (0.3%) were used as positive and negative controls respectively.
The plate was incubated at 37° C. with 5% CO2 for 18 hours. Post incubation, the plate was spun at 2000 rpm for 5 min and supernatant was gently aspired and collected in protein low binding V-bottom 96 well plates (Thermo Fisher-249944). The supernatant plates were sealed, labelled appropriately and stored at −80° C. till cytokine analysis (<1 month).
MILLIPLEX MAP Human Cytokine/Chemokine Magnetic Bead Panel kit (HCYTOMAG-60K) was used for measuring TNF alpha as per the kit's recommendation.
EC50 were determined using Graph Pad Prism Statistical software (Version 7.05), with individual data points represent the absorbance values of duplicates.

Row | SMILES | EC50 (hTLR8) [nM] | EC50 [1] [nM]
1 | CCOCc1nc2c(N)nc3ccccc3c2n1CC(C)(C)OCCCN1CCN(C)CC1 [Example 2] | 1000 to 10000 | 100 to 1000
2 | CCOCc1nc2c(N)nc3ccccc3c2n1CC(C)(C)OCCCCN1CCN(C)CC1 [Example 3] | 1000 to 10000 | < 100
3 | CCOCc1nc2c(N)nc3ccccc3c2n1CC(C)(C)OCCCCCN1CCN(C)CC1 [Example 4] | 100 to 1000 | < 100
4 | CCOCc1nc2c(N)nc3ccccc3c2n1CC(C)(C)OCCCCN1CCOCC1 [Example 7] | 100 to 1000 | 100 to 1000
5 | CCOCc1nc2c(N)nc3ccccc3c2n1CC(C)(C)OCCCCN1CCCCC1 [Example 8] | 1000 to 10000 | 1000 to 10000
6 | CCOCc1nc2c(N)nc3ccccc3c2n1CC(C)(C)OCCCCN1CCCC1 [Example 9] | 100 to 1000 | > 10000
7 | CCOCc1nc2c(N)nc3ccccc3c2n1CC(C)(C)OCCCCN1CCNCC1 [Example 10] | 1000 to 10000 | 100 to 1000
8 | CCOCc1nc2c(N)nc3ccccc3c2n1CC(C)(C)OCCCCN1CCN(CCN)CC1 [Example 11] | 1000 to 10000 | 1000 to 10000
9 | CCOCc1nc2c(N)nc3ccccc3c2n1CC(C)(C)OCCCCn1cc(CO)nn1 [Example 13] | > 10000 | 100 to 1000
10 | CCOCc1nc2c(N)nc3ccccc3c2n1CC(C)(C)OCCCCn1cc(CN)nn1 [Example 14] | 1000 to 10000 | 100 to 1000
11 | CCNCc1nc2c(N)nc3ccccc3c2n1CC(C)(C)OCCCCN1CCN(C)CC1 [Example 18] | > 10000 | 1000 to 10000
12 | CCOCc1nc2c(N)nc3ccccc3c2n1CC(C)(C)OC(=O)CN [Example 19] | 10 to 100 | < 100
13 | CCOCc1nc2c(N)nc3ccccc3c2n1CC(C)(C)OCCCCN1CCN(CC(C)(C)SC)CC1 [Example 27] | 1000 to 10000 | 1000 to 10000
